Data from the METLIN SMRT retention time set (Domingo-Almenara et al. 2019).

Test: gradient 5% acetonitrile 3 min, to 50% in 2 min, to 85% in 15 min, held 3 min, 100 µL/min
Conditions: column: Zorbax Extend-C18 2.1 x 50 mm; eluents: water / acetonitrile, 0.1% formic acid
Outline: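 Retention times of pure standards were taken from adduct peaks that were selected by computer and manually inspected. Over 3 months, mixtures of ~100 molecules were run by HPLC–quadrupole time-of-flight mass spectrometry in positive and negative ionization mode. The Zorbax Extend-C18 column (2.1 × 50 mm, 1.8 μm) ran at 100 μL/min in water and acetonitrile, each containing 0.1% formic acid, with 40 μL dead volume and 900 μL dwell volume.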

SMILES: O=C(NCCc1csc(C2CCCN(C(=O)CC3CCCC3)C2)n1)C1CC1 (centres undefined)
- RP-LC retention time: 757 s

SMILES: O=C(CN1C(=O)CCCc2cc(S(=O)(=O)N3CCCCCC3)ccc21)NC1CCCCC1
- RP-LC retention time: 987 s

SMILES: O=S(=O)(NCc1ccccc1F)c1c[nH]c2ncccc12
- RP-LC retention time: 708 s

SMILES: NC(=O)c1ccc2c(c1)CCN2C(=O)C1CCCC1
- RP-LC retention time: 698 s

SMILES: Cc1ccc(CNS(=O)(=O)c2ccc3c(c2)CCCC(=O)N3)cc1
- RP-LC retention time: 751 s

SMILES: COc1ccc(Cn2c(=O)c3ccnn3c3ccc(C(=O)O)cc32)cc1
- RP-LC retention time: 777 s

SMILES: COc1ccc(C2(CNC(=O)C(=O)NCC3COc4ccccc4O3)CCOCC2)cc1 (centres undefined)
- RP-LC retention time: 899 s

SMILES: O=C(NCc1cccnc1)C1CCCN(c2ccc(Sc3ccc(Br)cc3)nn2)C1 (centres undefined)
- RP-LC retention time: 653 s

SMILES: COc1ccc(-c2ccc(N3CCCC(C(=O)NCc4cccs4)C3)nn2)cc1 (centres undefined)
- RP-LC retention time: 613 s

SMILES: Cc1oc(C2CCC2)nc1C(=O)NCc1cc(F)ccc1F
- RP-LC retention time: 1030 s

SMILES: COCCN1CCC(N2CCN(S(=O)(=O)c3ccc(F)c(Cl)c3)CC2)C1=O (centres undefined)
- RP-LC retention time: 620 s

SMILES: Cc1ccc(C2Cn3cnc(C(=O)N4CCC(C(=O)NCc5ccc(F)cc5F)CC4)c3CO2)cc1 (centres undefined)
- RP-LC retention time: 830 s

SMILES: CC(NC(=O)c1ccccc1)c1nc(-c2ccc3c(c2)nnn3C)no1 (centres undefined)
- RP-LC retention time: 756 s

SMILES: CCOC(=O)CNC(=O)Nc1ccc(CCc2nc3ccccc3[nH]2)cc1
- RP-LC retention time: 606 s

SMILES: CCOC(=O)N1CCN(C(=O)Cc2csc(NC(=O)c3cnccn3)n2)CC1
- RP-LC retention time: 598 s

SMILES: CCOC(=O)N1CCN(C(=O)Cn2c(-c3cccn(C)c3=O)nc3ccccc32)CC1
- RP-LC retention time: 553 s

SMILES: COc1cc(NC(=O)N2CCN(Cc3nc4ccc(C)cc4o3)CC2)cc(OC)c1OC
- RP-LC retention time: 669 s

SMILES: CN(C)C(=O)c1n[nH]c2c1CN(C(=O)c1cccc(Br)c1)CC2
- RP-LC retention time: 654 s

SMILES: CCOC(=O)c1c(S(=O)(=O)NCC(=O)N2CCN(c3ccccn3)CC2)c(C)n(C)c1C
- RP-LC retention time: 618 s

SMILES: COc1ccc(CNC(=O)c2nsc(C(=O)NCCc3ccc(OC)c(OC)c3)c2N)cc1
- RP-LC retention time: 922 s

SMILES: O=C(c1cncc(Br)c1)N1CCC(Cc2nnc(-c3ccccc3)o2)CC1
- RP-LC retention time: 782 s

SMILES: COc1cccc(-c2ccc3nc(N4CCC(C(=O)N5CCOCC5)CC4)sc3n2)c1
- RP-LC retention time: 843 s

SMILES: COc1cc([C@@H]2c3cc4c(cc3[C@H](O)[C@@H](CO)[C@@H]2C(=O)N2CCN(C)CC2)OCO4)cc(OC)c1OC
- RP-LC retention time: 600 s

SMILES: CCn1cc(C(=O)Nc2cccc(F)c2)c2cccnc21
- RP-LC retention time: 892 s

SMILES: COCCNC(=O)NCCS(=O)(=O)N1CCN(c2cccc(C)c2)CC1
- RP-LC retention time: 661 s

SMILES: O=C(Cc1ccccc1)N1[C@H]2CC[C@@H]1c1cnc(-c3ccccc3)nc1C2
- RP-LC retention time: 898 s

SMILES: COc1ccc(-c2noc(C3CCCN3C(=O)c3ccc(N(C)C)cc3)n2)cc1OC (centres undefined)
- RP-LC retention time: 881 s

SMILES: CC(C(=O)NCCN1CCCCC1)n1c2ccccc2c2cnn(C)c(=O)c21 (centres undefined)
- RP-LC retention time: 628 s

SMILES: CCOC(=O)c1noc2ncnc(NCC3CCN(Cc4cccc(Cl)c4)CC3)c12
- RP-LC retention time: 603 s

SMILES: COc1ccccc1CNc1ncc(C(=O)O)c(-c2ccncc2)n1
- RP-LC retention time: 638 s

SMILES: O=C(Nc1nc(-c2ccc3c(c2)OCCO3)cs1)c1ccc2ncsc2c1
- RP-LC retention time: 857 s

SMILES: CCCc1noc(-c2nnn3c2COC(c2ccc(OC)cc2)C3)n1 (centres undefined)
- RP-LC retention time: 1010 s

SMILES: CSc1ccc(CNC(=O)Cn2cnc3nc4c(cc3c2=O)CC(C)CC4)cc1 (centres undefined)
- RP-LC retention time: 781 s

SMILES: CSCCC(NS(=O)(=O)c1ccc(Oc2ccccc2C)cc1)C(=O)O (centres undefined)
- RP-LC retention time: 852 s

SMILES: Nc1c(C(=O)c2ccccc2)sc2[nH]c(=O)c(C(=O)O)cc12
- RP-LC retention time: 733 s

SMILES: CC1(C(=O)NCCc2c[nH]c3ccccc23)CCCCC(=O)N1 (centres undefined)
- RP-LC retention time: 656 s

SMILES: CCC(=O)N1CCC2(CC1)CC1C(=O)N(CC)C(=O)N1C2 (centres undefined)
- RP-LC retention time: 626 s

SMILES: CCCCOC(=O)c1ccc(NC(=O)c2c(O)c3cccc4c3n(c2=O)CC4)cc1
- RP-LC retention time: 1070 s

SMILES: O=C(Nc1nccs1)c1cc(N2C(=O)C3C4CCC(C4)C3C2=O)ccc1Cl (centres undefined)
- RP-LC retention time: 742 s

SMILES: CCc1noc2nc(CCC(=O)NCCOC)nc(N3CCCCC3)c12
- RP-LC retention time: 724 s

SMILES: CCOC(=O)c1nc(NCc2ccc(OC(C)C)cc2)c2c(C)noc2n1
- RP-LC retention time: 1000 s

SMILES: COC1CCC12CCN(C(=O)CC(C)C)CC2 (centres undefined)
- RP-LC retention time: 810 s

SMILES: O=C(CSc1nnc2ccccn12)N1CCOCC1
- RP-LC retention time: 551 s

SMILES: CCC(C)NC(=O)c1ccc2ccnc(N3CCN(c4ccc(F)cc4)CC3)c2c1 (centres undefined)
- RP-LC retention time: 785 s

SMILES: CCOc1ccccc1NC(=O)c1sc(-c2cn(CC)c3ncccc23)nc1C
- RP-LC retention time: 1250 s

SMILES: CCN1CCN(CC2CCN(S(=O)(=O)c3cc(F)cc(F)c3)CC2)CC1
- RP-LC retention time: 598 s

SMILES: CCCCOc1ccc(C(=O)NCCc2cn3ccc(C)cc3n2)cc1
- RP-LC retention time: 588 s

SMILES: CCn1c(=O)n(CC)c2cc(S(=O)(=O)C3CCCCC3)c(NC(C)=O)cc21
- RP-LC retention time: 791 s

SMILES: Cc1ccc(N2CCC(NC(=O)Nc3cccc(C)c3)C2=O)cc1 (centres undefined)
- RP-LC retention time: 862 s

SMILES: Cc1cc(C2CCCN2C(=O)c2cc(-c3ccccc3F)no2)no1 (centres undefined)
- RP-LC retention time: 885 s

SMILES: Cc1nn(-c2ccc(N3CCOCC3)nn2)c(C)c1CCC(=O)NCCCc1ccco1
- RP-LC retention time: 692 s

SMILES: O=C1CC(c2noc(CCc3ccccc3)n2)CN1c1ccc(F)cc1 (centres undefined)
- RP-LC retention time: 966 s

SMILES: CC(C)(C)c1ccc2c(c1)OCC(=O)N2Cc1nc(-c2ccc3c(c2)OCO3)no1
- RP-LC retention time: 1200 s

SMILES: O=C1CC(NC(=O)C2(c3ccc(Cl)cc3)CCCC2)CN1 (centres undefined)
- RP-LC retention time: 678 s

SMILES: Cc1ccc2c(c1)OCC(=O)N2Cc1nc(-c2ccc(C)c(C)c2)no1
- RP-LC retention time: 1160 s

SMILES: Cc1ccc(Nc2c(-c3ccc(Cl)cc3)nc3ncccn23)cc1Cl
- RP-LC retention time: 1020 s

SMILES: COc1ccc(OCc2nnc3sc(-c4ccccn4)nn23)cc1
- RP-LC retention time: 823 s

SMILES: Cc1ccc(Sc2nccnc2N2CCCC(C(=O)NCc3cc(F)cc(F)c3)C2)cc1 (centres undefined)
- RP-LC retention time: 1120 s

SMILES: CCOc1ccccc1-c1noc(CN2C(=O)C(C)Oc3ccccc32)n1 (centres undefined)
- RP-LC retention time: 1130 s

SMILES: O=C1CC(c2nc(-c3ccc4c(c3)OCO4)no2)CN1c1ccc(F)cc1 (centres undefined)
- RP-LC retention time: 923 s

SMILES: CCN1CCCC1CNC(=O)C1CCN(S(=O)(=O)c2ccc3c(ccn3CC)c2)CC1 (centres undefined)
- RP-LC retention time: 664 s

SMILES: CCC1CCCCN1C(=O)c1cnc2nc(C)ccc2c1Nc1ccc(C)c(C)c1 (centres undefined)
- RP-LC retention time: 702 s

SMILES: CSc1nnc(C)c(=O)n1COC(=O)c1cc(C(F)(F)F)cc(C(F)(F)F)c1
- RP-LC retention time: 932 s

SMILES: CC(C)OCCCNC(=O)C1CCN(S(=O)(=O)c2ccc(-c3noc(C4CC4)n3)cc2)CC1
- RP-LC retention time: 890 s

SMILES: CCC(C)NC(=O)Cn1nc(Cc2ccncc2)c2ccccc2c1=O (centres undefined)
- RP-LC retention time: 572 s

SMILES: O=C(Nc1nc(-c2cccnc2)cs1)C(c1ccccc1)n1cccc1 (centres undefined)
- RP-LC retention time: 662 s

SMILES: CCc1ccc(CNC(=O)C2CCCN(c3ccc(=O)n(-c4ccc(F)cc4)n3)C2)cc1 (centres undefined)
- RP-LC retention time: 910 s

SMILES: CCCNC(=O)N(C1CCOCC1)C1CCN(C(=O)c2ccc(C)s2)CC1
- RP-LC retention time: 747 s

SMILES: CS(=O)(=O)N1CCC(C(=O)Nc2ccc(Oc3ccccc3)cc2)Oc2ccccc21 (centres undefined)
- RP-LC retention time: 1030 s

SMILES: COc1ccc(OC)c2[nH]c(C(=O)N[C@H](C(=O)O)c3ccccc3)cc12
- RP-LC retention time: 891 s

SMILES: COc1ccc(C(CC(=O)NCCN2CCCC2)N2Cc3ccccc3C2=O)cc1OC (centres undefined)
- RP-LC retention time: 609 s

SMILES: O=S(=O)(c1ccc(C2CCCCC2)cc1)N1CCOCC1
- RP-LC retention time: 1050 s

SMILES: COC(=O)c1sccc1NC(=O)N1CCCn2nc(-c3ccc(OC)cc3)cc2C1
- RP-LC retention time: 970 s

SMILES: COc1ccc(OC)c(NC(=O)CSc2nccc(N3CCN(c4cc(C)ccc4C)CC3)n2)c1
- RP-LC retention time: 1010 s

SMILES: CCCN1C(=O)COc2ccc(-c3noc(-c4ccc5cc[nH]c5c4)n3)cc21
- RP-LC retention time: 1110 s

SMILES: CCCCC#Cc1nc(NC)c2ncn([C@@H]3O[C@H](CO)C(O)[C@@H]3O)c2n1 (some centres undefined)
- RP-LC retention time: 724 s

SMILES: CCOC(=O)c1nc(N(CCC(=O)OC)c2ccccc2)c2ccccc2n1
- RP-LC retention time: 919 s

SMILES: O=C(NCCN1CCCCCC1)C1CCN(c2nc3cccnc3s2)CC1
- RP-LC retention time: 598 s

SMILES: Cc1ccc(-c2noc(Cn3cnc4c(cnn4-c4ccc(C)c(Cl)c4)c3=O)n2)cc1
- RP-LC retention time: 1270 s

SMILES: CCS(=O)(=O)c1nc2ccc(NS(=O)(=O)c3ccccc3)cc2s1
- RP-LC retention time: 838 s

SMILES: CCN1CCN(c2ccc(-c3ccc(C)c(S(=O)(=O)N4CCOCC4)c3)nn2)CC1
- RP-LC retention time: 612 s

SMILES: COc1cccc(CNC(=O)c2cn3cccc(C)c3n2)c1OC
- RP-LC retention time: 541 s

SMILES: O=[N+]([O-])c1cccc(-c2nnc(-c3ccccc3)o2)c1
- RP-LC retention time: 887 s

SMILES: COc1ccc(CN2C=C(C(=O)OCc3noc(-c4ccccc4C)n3)C(C)=NS2(=O)=O)cc1
- RP-LC retention time: 861 s

SMILES: CC1Oc2ccc(-c3csc(NC(=O)C4CCCCC4)n3)cc2NC1=O (centres undefined)
- RP-LC retention time: 922 s

SMILES: O=C(NCCc1ccccc1)N1CCc2nc(-c3ccc(F)cc3)ncc2C1
- RP-LC retention time: 900 s

SMILES: CC1CCN(C(=O)c2ccc(CN3C(=O)C4CCCN4C(=O)c4ccccc43)cc2)CC1 (centres undefined)
- RP-LC retention time: 790 s

SMILES: O=S(=O)(c1ccc(-c2nnc(C3CCCC3)o2)o1)N1CCCC1
- RP-LC retention time: 933 s

SMILES: O=C(NC1CC1)C1CCCN(c2cnc3nccnc3c2)C1 (centres undefined)
- RP-LC retention time: 592 s
